# System: cancer cells (PANC-1)
# Assay: CCK8 assay of the efficiency of killing cancer cells, with or without laser irradiation (FIG. 4)
# Type: cell-based
# Conditions: PANC-1, FIG. 4a, docetaxel treatment at various concentrations
# Method: 1 g of polyvinylpyrrolidone (PVP, Sigma-Aldrich) was dissolved in 20 g of ultrapure water and stirred in a mixing chamber at 1500 RPM for 30 minutes to obtain an aqueous PVP solution. Subsequently, 131.7 mg of potassium hexacyanoferrate (III) trihydrate (K3Fe(CN)6·3H2O, Sigma-Aldrich) was dissolved in 20 g of ultrapure water and mixed with the aqueous PVP solution. Then, 400 μl of 1 M HCl (Sigma-Aldrich) was added to the mixing chamber and vortexed at 60 J/s. After movement through an injection pipe, the solution thus prepared was subjected to a step of allowing gas to flow at a high speed on the inner boundary of a reaction chamber and in a liquid cutting tube at an applied voltage of 30 kV, a distance of 25 cm between the reaction chamber and the end of the injection pipe, and a temperature of 140° C. As indicated by the green arrows in FIG. 1, the gas is moved toward the upper portion of the reaction chamber through a structure in which the boundary of the reaction chamber and the liquid cutting tube are at 0.29 rad and the gap of the boundary is 900 nm. As the gas passed, the prepared solution was cut into small pieces. The cut liquid received heat in the reaction chamber and the temperature thereof rose quickly compared to bulk liquid having the same total volume (40 ml) due to heat transfer within the liquid (FIG. 3). […]
structure (smiles),measurement,value
CC(=O)O[C@@]12CO[C@@H]1C[C@H](O)[C@@]1(C)C(=O)[C@H](O)C3=C(C)[C@@H](OC(=O)[C@H](O)[C@@H](NC(=O)OC(C)(C)C)c4ccccc4)C[C@@](O)([C@@H](OC(=O)c4ccccc4)[C@H]21)C3(C)C [docetaxel],efficiency of killing cancer cells,increased the efficiency of killing cancer cells with an increase in the treatment concentration

# Source: patent US20260157967A1, “METHOD FOR PREPARING MEDICINES, HAVING REDUCED PRODUCTION TIME AND IMPROVED STABILITY” (DR.INB CO., priority 2021, published 2026)
